In US20220340597A1, “HEXAHYDRO-1H-PYRAZINO[1,2-A]PYRAZINE COMPOUNDS FOR THE TREATMENT OF AUTOIMMUNE DISEASE” (Hoffmann-La Roche Inc., priority 2019, published 2022):

What was measured:
human TLR9 = target: T1, human TLR9 (Homo sapiens, UniProt Q9NR96); experiment: HEK293-Blue-hTLR-9 cells assay; type: cell-based; conditions: HEK293-Blue-hTLR9 cells, ODN2006 stimulation, 20 hrs, SEAP reporter; read-out: HEK/hTLR9 IC50
T1 construct: host or cells: HEK293 (HEK-Blue hTLR9)
T1 sequence (Q9NR96 26-1032): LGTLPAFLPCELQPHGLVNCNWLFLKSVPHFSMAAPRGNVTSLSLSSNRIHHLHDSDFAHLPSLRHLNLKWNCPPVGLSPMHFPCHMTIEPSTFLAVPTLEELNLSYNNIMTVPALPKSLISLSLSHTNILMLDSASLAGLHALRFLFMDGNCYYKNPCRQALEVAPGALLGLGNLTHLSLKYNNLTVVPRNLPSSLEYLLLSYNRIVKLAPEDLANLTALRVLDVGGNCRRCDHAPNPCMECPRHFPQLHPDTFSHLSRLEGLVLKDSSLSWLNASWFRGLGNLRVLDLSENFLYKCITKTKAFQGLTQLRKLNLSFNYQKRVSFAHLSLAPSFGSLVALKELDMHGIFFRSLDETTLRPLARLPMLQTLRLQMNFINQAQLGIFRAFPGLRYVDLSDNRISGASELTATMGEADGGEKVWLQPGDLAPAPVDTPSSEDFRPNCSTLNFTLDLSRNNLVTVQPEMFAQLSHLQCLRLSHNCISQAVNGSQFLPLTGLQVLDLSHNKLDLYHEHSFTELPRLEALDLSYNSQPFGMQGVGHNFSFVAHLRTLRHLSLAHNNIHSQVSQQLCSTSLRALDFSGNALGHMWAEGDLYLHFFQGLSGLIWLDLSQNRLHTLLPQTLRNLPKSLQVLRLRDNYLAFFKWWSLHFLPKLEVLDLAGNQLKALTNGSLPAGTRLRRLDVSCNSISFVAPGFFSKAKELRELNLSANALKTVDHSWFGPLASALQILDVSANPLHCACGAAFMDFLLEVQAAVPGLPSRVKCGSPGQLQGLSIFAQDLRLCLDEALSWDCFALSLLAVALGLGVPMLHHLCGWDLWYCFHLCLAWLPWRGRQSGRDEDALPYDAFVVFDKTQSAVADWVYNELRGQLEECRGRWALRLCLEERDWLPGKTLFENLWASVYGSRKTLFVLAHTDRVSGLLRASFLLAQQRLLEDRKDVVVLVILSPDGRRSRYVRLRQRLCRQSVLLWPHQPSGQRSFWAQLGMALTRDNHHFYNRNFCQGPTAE
Method: The following tests were carried out in order to determine the activity of the compounds of formula (I) and (Ia) in HEK293-Blue-hTLR-7/8/9 cells assay.
HEK293-Blue-hTLR-9 Cells Assay:
A stable HEK293-Blue-hTLR-9 cell line was purchased from InvivoGen (Cat. #: hkb-htlr9, San Diego, Calif., USA). These cells were originally designed for studying the stimulation of human TLR9 by monitoring the activation of NF-κB. A SEAP (secreted embryonic alkaline phosphatase) reporter gene was placed under the control of the […] minimal promoter fused to five NF-κB and AP-1-binding sites. The SEAP was induced by activating NF-κB and AP-1 via stimulating HEK-Blue hTLR9 cells with TLR9 ligands. Therefore, the reporter expression was declined by TLR9 antagonist under the stimulation of a ligand, such as ODN2006 (Cat. #: tlr1-2006-1, Invivogen, San Diego, Calif., USA), for incubation of 20 hrs. The cell culture supernatant SEAP reporter activity was determined using QUANTI-Blue™ kit (Cat. #: rep-qb1, Invivogen, San Diego, Calif., USA) at a wavelength of 640 nm, a detection medium that turns purple or blue in the presence of alkaline phosphatase.
Then 20 μL of the supernatant from each well was incubated with 180 μL Quanti-blue substrate solution at 37° C. for 2 h and the absorbance was read at 620-655 nm using a spectrophotometer. The signaling pathway that TLR9 activation leads to downstream NF-κB activation has been widely accepted, and therefore similar reporter assay was modified for evaluating TLR9 antagonist.

human TLR8 = target: T2, human TLR8 (Homo sapiens, UniProt Q9NR97); experiment: HEK293-Blue-hTLR-8 cells assay
T2 sequence (Q9NR97 27-1041): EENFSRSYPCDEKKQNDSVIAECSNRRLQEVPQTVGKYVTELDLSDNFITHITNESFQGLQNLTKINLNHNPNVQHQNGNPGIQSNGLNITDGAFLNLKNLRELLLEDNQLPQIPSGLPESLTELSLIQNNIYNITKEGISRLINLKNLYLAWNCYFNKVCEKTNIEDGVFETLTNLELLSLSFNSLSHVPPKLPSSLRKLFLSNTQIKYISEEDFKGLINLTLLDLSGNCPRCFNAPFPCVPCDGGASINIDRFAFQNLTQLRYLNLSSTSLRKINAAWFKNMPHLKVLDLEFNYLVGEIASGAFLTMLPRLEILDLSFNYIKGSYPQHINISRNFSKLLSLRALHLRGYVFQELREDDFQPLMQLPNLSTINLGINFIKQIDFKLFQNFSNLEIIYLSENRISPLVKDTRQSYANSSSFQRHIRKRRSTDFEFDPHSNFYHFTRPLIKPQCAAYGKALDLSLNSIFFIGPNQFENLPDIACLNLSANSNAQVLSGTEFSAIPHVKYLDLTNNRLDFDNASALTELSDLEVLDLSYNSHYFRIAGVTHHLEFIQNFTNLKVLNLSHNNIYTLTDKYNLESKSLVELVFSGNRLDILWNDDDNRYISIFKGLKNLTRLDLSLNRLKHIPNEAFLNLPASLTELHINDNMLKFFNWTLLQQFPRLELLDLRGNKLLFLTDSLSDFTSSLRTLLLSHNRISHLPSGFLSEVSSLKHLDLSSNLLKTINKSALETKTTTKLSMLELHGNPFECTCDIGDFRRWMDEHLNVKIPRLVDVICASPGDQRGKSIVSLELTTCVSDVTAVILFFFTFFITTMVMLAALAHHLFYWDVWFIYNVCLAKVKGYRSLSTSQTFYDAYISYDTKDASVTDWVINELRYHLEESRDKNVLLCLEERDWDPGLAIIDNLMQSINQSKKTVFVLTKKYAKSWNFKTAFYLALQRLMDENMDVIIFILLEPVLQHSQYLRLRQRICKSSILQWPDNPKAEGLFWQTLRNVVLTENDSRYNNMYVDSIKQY
Description: HEK293-Blue-hTLR-8 Cells Assay:
A stable HEK293-Blue-hTLR-8 cell line was purchased from InvivoGen (Cat. #: hkb-htlr8, San Diego, Calif., USA). These cells were originally designed for studying the stimulation of human TLR8 by monitoring the activation of NF-κB. A SEAP (secreted embryonic alkaline phosphatase) reporter gene was placed under the control of the IFN-β minimal promoter fused to five NF-κB and AP-1-binding sites. The SEAP was induced by activating NF-κB and AP-1 via stimulating HEK-Blue hTLR8 cells with TLR8 ligands. Therefore, the reporter expression was declined by TLR8 antagonist under the stimulation of a ligand, such as R848, for incubation of 20 hrs. The cell culture supernatant SEAP reporter activity was determined using QUANTI-Blue™ kit (Cat. #: rep-qb1, Invivogen, San Diego, Calif., USA) at a wavelength of 640 nm, a detection medium that turns purple or blue in the presence of alkaline phosphatase.

Compound | IC50 (human TLR9) [µM] | IC50 (human TLR8) [µM]
[2H]c1ccc2c(N3C[C@@H]4CN(c5ncc(N6CC(C)(N)C6)cc5C)CCN4[C@@H](C)C3)ccc(C#N)c2n1 [Example 118, 5-[(4S,9aR)-8-[5-(3-amino-3-methyl-azetidin-1-yl)-3-methyl-2-pyridyl]-4-methyl-3,4,6,7,9,9a-hexahydro-1H-pyrazino[1,2-a]pyrazin-2-yl]-2-deuterio-quinoline-8-carbonitrile] | 0.148 | 0.006
CO[C@H]1CN(c2ccc(CCN3CCN4[C@@H](C3)CN(c3ccc(C#N)c5ncccc35)C[C@H]4C)cn2)C[C@@H]1N [Example 25, 5-[(4R,9aS)-8-[2-[6-[(3S,4S)-3-amino-4-methoxy-pyrrolidin-1-yl]-3-pyridyl]ethyl]-4-methyl-3,4,6,7,9,9a-hexahydro-1H-pyrazino[1,2-a]pyrazin-2-yl]quinoline-8-carbonitrile] | 0.064 | 0.025
C[C@@H]1CN(c2ccc(C#N)c3ncccc23)C[C@@H]2CN(CCc3ccc(N4CCN[C@@H](C)C4)cn3)CCN21 [Example 20, 5-[(4R,9aS)-4-methyl-8-[2-[5-[(3S)-3-methylpiperazin-1-yl]-2-pyridyl]ethyl]-3,4,6,7,9,9a-hexahydro-1H-pyrazino[1,2-a]pyrazin-2-yl]quinoline-8-carbonitrile] | 0.056 | 0.051
CO[C@@H]1CN(c2ccc(CCN3CCN4[C@@H](C3)CN(c3ccc(C#N)n5ncc(F)c35)C[C@H]4C)cn2)C[C@H]1N [Example 67, 4-[(4R,9aS)-8-[2-[6-[(3R,4R)-3-amino-4-methoxy-pyrrolidin-1-yl]-3-pyridyl]ethyl]-4-methyl-3,4,6,7,9,9a-hexahydro-1H-pyrazino[1,2-a]pyrazin-2-yl]-3-fluoro-pyrazolo[1,5-a]pyridine-7-carbonitrile] | 0.083 | 0.084
C[C@@H]1CN(c2ccc(C#N)c3ncccc23)C[C@@H]2CN(c3ccnc(N4CCNCC4)n3)CCN21 [Example 33, 5-[(4R,9aR)-4-methyl-8-(2-piperazin-1-ylpyrimidin-4-yl)-3,4,6,7,9,9a-hexahydro-1H-pyrazino[1,2-a]pyrazin-2-yl]quinoline-8-carbonitrile] | 0.064 | 0.008
[2H]c1ccc2c(N3C[C@@H]4CN(c5ccc([C@H]6CNCCO6)cc5)CCN4[C@@H](C)C3)ccc(C#N)c2n1 [Example 107, 5-[(4S,9aS)-4-methyl-8-[4-[(2S)-morpholin-2-yl]phenyl]-3,4,6,7,9,9a-hexahydro-1H-pyrazino[1,2-a]pyrazin-2-yl]-2-deuterio-quinoline-8-carbonitrile] | 0.146 | 0.004
C[C@@H]1CN(c2ccc(C#N)c3ncccc23)C[C@@H]2CN(Cc3cccc4c3CNC4)CCN21 [Example 72, 5-[(4R,9aS)-8-(isoindolin-4-ylmethyl)-4-methyl-3,4,6,7,9,9a-hexahydro-1H-pyrazino[1,2-a]pyrazin-2-yl]quinoline-8-carbonitrile] | 0.089 | 0.015
N#Cc1ccc(N2CCN3CCN(c4cccc5c4CNC5)CC3C2)c2cccnc12 (stereo not shown) [Example 35, 5-(8-isoindolin-4-yl-3,4,6,7,9,9a-hexahydro-1H-pyrazino[1,2-a]pyrazin-2-yl)quinoline-8-carbonitrile] | 0.098 | 0.008

Now those with a lower IC50 (human TLR9), led by results:

IC50 (human TLR9) [µM] | IC50 (human TLR8) [µM] | Compound
0.041 | 0.028 | C[C@@H]1CN(c2ccc(C#N)c3ncccc23)C[C@@H]2CN(Cc3ccc(N4CCCNCC4)nc3)CCN21 [Example 15, 5-[(4R,9aS)-8-[[6-(1,4-diazepan-1-yl)-3-pyridyl]methyl]-4-methyl-3,4,6,7,9,9a-hexahydro-JH-pyrazino[1,2-a]pyrazin-2-yl]quinoline-8-carbonitrile]
0.042 | 0.024 | [2H]c1ccc2c(N3C[C@@H]4CN(c5ccc(CCN6C[C@@H](N)[C@@H](F)C6)nc5)CCN4[C@@H](C)C3)ccc(C#N)c2n1 [Example 117, 5-[(4S,9aR)-8-[6-[2-[(3R,4S)-3-amino-4-fluoro-pyrrolidin-1-yl]ethyl]-3-pyridyl]-4-methyl-3,4,6,7,9,9a-hexahydro-1H-pyrazino[1,2-a]pyrazin-2-yl]-2-deuterio-quinoline-8-carbonitrile]
0.05 | 0.005 | Cc1nc(N2CC(C)(N)C2)ccc1CN1CCN2[C@@H](C1)CN(c1ccc(C#N)c3ncccc13)C[C@H]2C [Example 76, 5-[(4R,9aS)-8-[[6-(3-amino-3-methyl-azetidin-1-yl)-2-methyl-3-pyridyl]methyl]-4-methyl-3,4,6,7,9,9a-hexahydro-1H-pyrazino[1,2-a]pyrazin-2-yl]quinoline-8-carbonitrile]
< 0.032 | 0.03 | C[C@@H]1CN(c2ccc(C#N)c3ncccc23)C[C@@H]2CN(CCc3ccc(N4CCNCC4)cc3)CCN21 [Example 7, 5-[(4R,9aS)-4-methyl-8-[2-(4-piperazin-1-ylphenyl)ethyl]-3,4,6,7,9,9a-hexahydro-1H-pyrazino[1,2-a]pyrazin-2-yl]quinoline-8-carbonitrile]
0.043 | 0.017 | [2H]c1ccc2c(N3C[C@@H]4CN(CCc5ccc(N6C[C@@H](N)[C@H](OC)C6)nc5)CCN4[C@H](C)C3)ccc(C#N)c2n1 [Example 62, 5-[(4R,9aS)-8-[2-[6-[(3R,4R)-3-amino-4-methoxy-pyrrolidin-1-yl]-3-pyridyl]ethyl]-4-methyl-3,4,6,7,9,9a-hexahydro-1H-pyrazino[1,2-a]pyrazin-2-yl]-2-deuterio-quinoline-8-carbonitrile]
0.034 | 0.011 | C[C@@H]1CN(c2ccc(C#N)c3ncccc23)C[C@@H]2CN(c3ccnc(N4CCNCC4)c3)CCN21 [Example 32, 5-[(4R,9aS)-4-methyl-8-(2-piperazin-1-yl-4-pyridyl)-3,4,6,7,9,9a-hexahydro-1H-pyrazino[1,2-a]pyrazin-2-yl]quinoline-8-carbonitrile]
